Test results as given in US7572444B2, “Binding proteins specific for human matriptase” (Amgen Fremont Inc., priority 2004, dated 2009).

Legend:
[1] = target: T1, catalytic domain of Matriptase (Homo sapiens, UniProt Q9Y5Y6); test: Enzymatic assay with tripeptide QAR-MCA substrate (Tripeptide-MCA assay); format: biochemical; details: at the concentration that inhibits the unknown protease
T1 sequence (Q9Y5Y6 615-855): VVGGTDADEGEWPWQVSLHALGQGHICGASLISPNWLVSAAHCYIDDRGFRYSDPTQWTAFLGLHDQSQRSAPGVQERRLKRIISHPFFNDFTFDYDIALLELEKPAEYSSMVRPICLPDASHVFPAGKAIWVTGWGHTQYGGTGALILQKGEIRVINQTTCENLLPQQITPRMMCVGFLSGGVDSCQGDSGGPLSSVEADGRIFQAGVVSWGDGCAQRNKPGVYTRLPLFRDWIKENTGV
Procedure: All 972 wells were then analyzed in an enzymatic assay using the catalytic domain of Matriptase and the tripeptide QAR-MCA (Peptides International Inc., Louisville, Ky.) as substrate. The cleavage of the QAR-MCA substrate by Matriptase causes the release of a methylcoumarin amide group (MCA) as amino-methyl coumarin (AMC). The free AMC can then be detected using a fluorescent reader as a measure of Matriptase activity.
(§1) The development of the assay method was complicated by the finding that an unknown protease was present in the B cell culture supernatant that was able to cleave the QAR-MCA substrate. […] This was advantageous as the background cleavage would no longer affect the ability to identify neutralizing antibodies against Matriptase. The supernatant also contained an unknown Matriptase inhibitor that necessitated a relatively high Matriptase concentration in the assay.
The wells were determined to be positive based on their ability to inhibit Matriptase activity in two assays compared with average of the irrelevant control wells (enzyme, substrate and B cell culture supernatant) shown below. The data is shown as a percentage of the average of the negative control wells (enzyme and substrate) as in Table 3.

[2] = tested on: unknown protease present in the B cell culture supernatant; test: QAR-MCA cleavage by unknown protease of B cell culture supernatant; format: biochemical; details: QAR-MCA substrate
From the text: as §1

[3] = tested on: Ramos tumor-bearing SCID mice; test: Ramos hind-limb paralysis model; format: in vivo; details: 5 mg/kg, d1, i.p., 1×10^6 Ramos cells i.v.
Procedure: The ability of sc95/96 to modulate the invasive and/or metastatic properties of Ramos cells was evaluated in a rodent hind-limb paralysis model. Without therapeutic intervention, SCID mice inoculated systemically with Ramos B lymphoma cells develop hind limb paralysis at ˜25 days post injection, presumably related to the accumulation of tumor cells in the spinal cord and/or brain tissues (dijoseph et al., 2004, Clinical Cancer Research 10: 8620-8629).
In this experiment, 7-8 week old C.B-17 SCID male mice were inoculated with 1×10^6 Ramos cells via tail vein injection. […] Groups 1-3 thereafter received weekly 25 mg/kg injections of antibody or an equivalent volume of PBS. Animals were given food and water ad libidum and monitored daily for signs of paralysis. Individual mice were euthanized when unable to move due to hind limb paralysis.

Ramos cells = test: CDC assay; format: cell-based; details: 10, 5, 2.5 and 1.25 μg/mL, 25% human sera, 1 hour; sc95/96 as IgG1 or IgG2
Procedure: In this experiment, 100,000 Ramos cells in 25 μL of media were added to the bottom of a 96-well plate. […] Each sample point was run in quadruplicate. After 10 minutes at room temperature, 50 μL of 50% human sera (25% final concentration) was added to the cells and incubated at 37 degrees Celsius for 1 hour. CellTiterGlo reagent (100 μL) was added to each well and allowed to incubate on the cells for 10 minutes.

Raji cells = test: ADCC assay; format: cell-based, human; details: 0.0001 to 1 μg/ml, NK effector cells, 4 hours
Procedure: Raji cells were used as target cells for the ADCC assay. To prepare the target cells, Raji cells were harvested and resuspended in media at 1.0×10^6 cells/ml. Calcein (Sigma C1359) was then added to a final concentration of 10 μM, and the cells were incubated for 45-60 minutes at 37° C., after which the Raji cells were pelleted by centrifugation at 1200 rpm for 10 minutes. The supernatant was discarded and the cells were resuspended in growth media. The centrifugation step was repeated, the cells were resuspended at a concentration of 1.0×10^4 cells in 75μL media and were then plated at 1.0×10^4 cells per well in a round bottom plate. […] The cells and antibody were incubated for 30 minutes at room temperature.
The effector cells for the ADCC assay were prepared as follows. […] The cells were counted to determine the concentration of natural killer (NK) cells, diluted to a concentration of 9.0×10^4 cells per 75 μL, and then 75 μL of these cells were then added to the Raji cells from the step above and then incubated for 4 hours at 37° C. The plate was then centrifuged at 1200 rpm for 5 minutes, and 100 μL of the supernatant was transferred to a flat, black clear-bottom 96 well plate and subsequently read on a Victor plate reader using a 490 nm excitation and 530 nm emission wavelength.

Row | Molecule | effect on activity of Matriptase [1] | inhibition of activity of the unknown protease [2] | Median survival time [3] | CDC on Ramos cells (Ramos cells) | Raji cell lysis by ADCC (Raji cells)
1 | O=S(=O)(F)Cc1ccccc1 [PMSF, phenylmethyl sulfonyl fluoride] | without affecting the activity of Matriptase | completely inhibit | – | – | –
2 | Rituximab [reference compound] | – | – | greater than 45 days | did demonstrate CDC activity | induce Raji cell lysis by ADCC
